Key:
[1] = target: Urokinase-type plasminogen activator (Homo sapiens) (UniProt P00749); experiment: Compound was tested for percentage inhibition of urokinase in enzyme rate assays; conditions: concentration not given here
[2] = target: Plasminogen (Homo sapiens) (UniProt P00747); experiment: Compound was tested for percentage inhibition of plasmin in enzyme rate assays; conditions: concentration not given here
[3] = target: Plasminogen (Homo sapiens) (UniProt P00747); experiment: Compound was tested for percentage inhibition of plasmin in enzyme rate assays; NI denotes no significant inhibition at 100 uM
[4] = target: Urokinase-type plasminogen activator (Homo sapiens) (UniProt P00749); experiment: Compound was tested for percentage inhibition of urokinase in enzyme rate assays; NI denotes no significant inhibition at 100 uM

Sequence of Plasminogen (Homo sapiens) (P00747 97-580 limits assumed): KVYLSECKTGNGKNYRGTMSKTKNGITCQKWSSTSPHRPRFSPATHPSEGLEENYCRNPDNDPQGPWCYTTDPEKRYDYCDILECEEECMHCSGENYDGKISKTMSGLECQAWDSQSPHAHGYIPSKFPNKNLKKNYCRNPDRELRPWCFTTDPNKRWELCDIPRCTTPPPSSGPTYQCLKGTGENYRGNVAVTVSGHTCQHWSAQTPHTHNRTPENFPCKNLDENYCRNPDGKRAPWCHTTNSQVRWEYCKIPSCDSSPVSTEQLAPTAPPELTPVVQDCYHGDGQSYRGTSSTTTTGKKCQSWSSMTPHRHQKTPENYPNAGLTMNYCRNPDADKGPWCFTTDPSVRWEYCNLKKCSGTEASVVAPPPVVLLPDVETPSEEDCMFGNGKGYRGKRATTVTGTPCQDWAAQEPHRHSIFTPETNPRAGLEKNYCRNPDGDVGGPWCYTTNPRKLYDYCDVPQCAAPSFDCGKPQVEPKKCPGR
Sequence of Plasminogen (Homo sapiens) (P00747 581-810 limits assumed): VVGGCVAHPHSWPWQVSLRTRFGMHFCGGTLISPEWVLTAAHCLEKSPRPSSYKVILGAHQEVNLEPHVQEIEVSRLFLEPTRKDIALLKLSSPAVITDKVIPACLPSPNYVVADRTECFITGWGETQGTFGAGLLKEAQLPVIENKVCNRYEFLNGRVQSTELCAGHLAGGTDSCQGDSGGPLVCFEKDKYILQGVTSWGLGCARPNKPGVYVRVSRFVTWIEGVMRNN

Compound	inhibition [1] [%]	inhibition [2] [%]	inhibition [3]	inhibition [4]
CC(=O)N[C@]1(C)CC[C@]2(C)[C@H](C)CC[C@]3(CCC(=O)[C@H]32)C(=O)C1=O	28	25	–	–
CC[C@]1(C)CC[C@]2(C)[C@H](C)CC[C@]3(CCC(=O)[C@H]32)C(=O)C1=O	–	–	No inhibition	No inhibition

From ChEMBL document CHEMBL1134891, “Design and synthesis of conformationally restricted eight-Membered ring diketones as potential serine protease inhibitors” (Bioorg Med Chem Lett, 2002)
